The results in this text go back to paper PMC9132363 (Journal of Medicinal Chemistry, 2022).

Counter-ions that a name gives are not always drawn. Like-named read-outs stand apart in the source and are kept apart here.

A short description of data set [1]: MTT viability assay. The class given is cell-based, human. The following applies: human, HEK293T cells, HEK293T, 16 h, read-out: Cell viability (MTT). The procedure: (§1) HEK293T cells were plated in 24-well culture plates (75,000 cells/well) and incubated in a CO2 incubator. The next day, treatment was given according to the experimental requirement. Sixteen hours later, 50 μL of MTT solutions from the stock (5 mg/mL) was added, and cells were incubated in a CO2 incubator in the dark for 2 h. The medium was removed, and formazan crystals formed by the cells were dissolved using 500 μL of DMSO followed by transfer in 96-well plates. The absorbance was read at a 570 nm wavelength on a multiwell plate reader.[70]

The test system of data set [2] is NRF2. Put plainly: 3×ARE-LUC luciferase reporter assay. The class given is cell-based, human. The following applies: for fold induction at 20 µM / fold induction at 6 µM / fold induction at 60 µM: Homo sapiens, 16 h; for activation of the NRF2 reporter: in words, 6, 20 and 60 μM; for NRF2 induction, CD (concentration needed to double luciferase expression): 3×ARE-LUC. As to the method: Transient transfections of HEK293T cells were performed with the expression vectors for TK-Renilla (Promega, Madison, […]) and the expression vector ARE-LUC (Dr. J. Alam, Dept. of Molecular Genetics, Ochsner Clinic Foundation, New Orleans, LA). Cells were seeded on 24-well plates (75,000 cells per well), cultured for 16 h, and transfected using calcium phosphate. Eight hours after transfections, cells were treated with 3 different concentrations of the compounds (6, 20, and 60 μM). […] After 16 h, the cells were lysed and assayed with a dual-luciferase assay system (Promega) according to the manufacturer’s instructions. Relative light units were measured in a GloMax 96 microplate luminometer with dual injectors (Promega).

Data set [3] deals with ROCK-II (ROKa) (Rattus norvegicus, UniProt Q62868). Put plainly: ROCK inhibition studies (33P-ATP, Long S6 substrate peptide). The class given is biochemical. The following applies: for remaining activity at 10 µM: 0.5 h, supplementary CSV, read-out: ROCK2 activity @ 10microM; for IC50: Table 3, read-out: ROCK2 inhibition IC50; for ROCK2 inhibition potency compared with fasudil: in words. The procedure: ROCK-II (ROKa) (5–20 mU diluted in 50 mM Tris pH 7.5, 0.1 mM EGTA, 0.1% 2-mercaptoethanol, and 1 mg/mL BSA) was assayed against the Long S6 substrate peptide ([…]) in a final volume of 25.5 μL containing 50 mM Tris pH 7.5, 0.1 mM EGTA, 30 μM Long S6 substrate peptide, 10 mM magnesium acetate, and 0.02 mM [33P-g-ATP] (50–1000 cpm/pmol) and incubated for 30 min at room temperature. Assays were stopped by addition of 5 μL of 0.5 M (3%) orthophosphoric acid and then harvested onto P81 Unifilter plates with a wash buffer of 50 mM orthophosphoric acid.

The nature of data set [4]: DPPH radical scavenging assay. The class given is physicochemical. The following applies: for EC50: 80% MeOH, 30 min, 517 nm, read-out: Radical scavenging activity EC50 (DPPH method); for IC50: supplementary CSV. As to the method:
The antioxidant activity was determined by the 2,2-diphenyl-1-picrylhydrazyl hydrate (DPPH) assay.[65]−[67] All the measurements were performed in an 80% MeOH solution, with the final reaction volume being 3 mL. A stock of DPPH solution in DMSO (10^–2 M) was prepared and stored at −20 °C, and the same procedure was performed with the antioxidant solution. Then, the DPPH stock solution was diluted to 2 mL with a final concentration of 150 μM (final volume of 3 mL and final concentration of 100 μM). The antioxidant stock was sequentially diluted to 1 mL at 3, 9, 30, 90, and 300 μM (final volume of 3 mL and final concentrations of 1, 3, 10, 30, and 100 μM). The mixture was incubated at room temperature for 30 min. Once this time had passed, the absorbance was measured in a spectrophotometer at 517 nm. Trolox, caffeic acid, and ferulic acid were used as a standard (1, 3, 10, 30, and 100 μM final concentrations). A blank using 80% MeOH solution instead of the corresponding antioxidant was used in each assay. Two independent measurements of each sample were performed. Data were processed using Origin software, and sigmoidal fitting according to the DoseResp function was performed to extrapolate the IC50 (μM) of each antioxidant.

Data set [5] relates to HEK293T cells. Put plainly: MTT viability assay. The class given is cell-based, human. The following applies: 20 µM, Table S3. The procedure:
as §1

Where [6] appears, read: 20 microM, supplementary CSV, read-out: NRF2 induction @ 20 microM (fold change).
Where [7] appears, read: HEK-293T, HEK293T, read-out: Luciferase assay response.
Setting [8] is: HEK-293T, 20 µM, HEK293T, read-out: Luciferase assay response.

Chain of ROCK-II (ROKa) (Q62868 2-543 limits assumed): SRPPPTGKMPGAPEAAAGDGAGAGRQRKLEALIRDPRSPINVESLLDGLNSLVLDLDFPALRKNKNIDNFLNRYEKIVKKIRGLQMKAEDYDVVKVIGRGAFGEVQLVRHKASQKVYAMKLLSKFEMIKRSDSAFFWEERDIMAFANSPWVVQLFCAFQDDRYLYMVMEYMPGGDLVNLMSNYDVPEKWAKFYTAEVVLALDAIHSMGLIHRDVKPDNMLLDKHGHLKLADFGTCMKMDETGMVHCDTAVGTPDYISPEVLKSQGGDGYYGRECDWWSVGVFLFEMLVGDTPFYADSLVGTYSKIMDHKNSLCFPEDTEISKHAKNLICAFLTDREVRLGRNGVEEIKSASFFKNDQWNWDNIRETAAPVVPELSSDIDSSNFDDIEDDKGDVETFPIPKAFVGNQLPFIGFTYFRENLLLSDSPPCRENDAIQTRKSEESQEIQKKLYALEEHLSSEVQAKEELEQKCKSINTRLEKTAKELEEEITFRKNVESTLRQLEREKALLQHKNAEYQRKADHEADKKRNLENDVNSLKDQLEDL

Consider `O=S(=O)(c1cccc2cnccc12)N1CCCNCC1` [fasudil, 5-((1,4-Diazepan-1-yl)sulfonyl)isoquinoline, reference compound], for which, in data set [1], the viability at 16 h, 20 µM was determined as 92.1 ± 3.71% and the viability at 16 h, 60 µM stood at 83.43 ± 0.715%. The fold induction at 20 µM in data set [2] (setting [6]) came out at 1 ± 0.06. Also, in data set [2] (setting [7]), the fold induction at 6 µM is 1.3 ± 0.21 and the fold induction at 60 µM worked out at 2.9 ± 0.49. In addition, in data set [2] (setting [8]), the fold induction at 20 µM turned out to be 1 ± 0.06. Besides, the “activation of the NRF2 reporter” value in data set [2] is “low activity”.

With `COc1cc(/C=C/C(=O)N2CCCN(S(=O)(=O)c3cccc4cnccc34)CC2)ccc1O` [Compound 1f, 3-(4-Hydroxy-3-methoxyphenyl)-1-(4-(isoquinolin-5-ylsulfonyl)-1,4-diazepan-1-yl)prop-2-en-1-one], in data set [3], the remaining activity at 10 µM was 30.3 ± 7.4% and the IC50 was determined as 2.61 µM. Further, the EC50 in data set [4] worked out at 9.61 µM. Also, in data set [1], the viability at 16 h, 20 µM came out at 93.9 ± 2.27% and the viability at 16 h, 60 µM stood at 77.9 ± 3.9%. In data set [5], the “MTT (%)” value is under 20%. For the same compound, in data set [2] (setting [6]), the fold induction at 20 µM turned out to be 0.8 ± 0.02. In data set [2] (setting [7]), the fold induction at 6 µM is 0.7 ± 0.06 and the fold induction at 60 µM was found to be 1.2 ± 0.08. Also, the fold induction at 20 µM in data set [2] (setting [8]) was 0.8 ± 0.02.

In the case of `O=C(CCc1ccc(O)c(O)c1)N1CCN(S(=O)(=O)c2cccc3cnccc23)CC1` [Compound 1c, 3-(3,4-Dihydroxyphenyl)-1-(4-(isoquinolin-5-ylsulfonyl)piperazin-1-yl)propan-1-one], the melting point lay within 158 to 159 °C. For the same compound, in data set [3], the remaining activity at 10 µM was found to be 32.6 ± 10.3%, the half-inhibitory concentration (IC50) came out at 0.32 µM and the “ROCK2 inhibition potency compared with fasudil” value was “potency similar to the reference compound”. Besides, in data set [4], the EC50 is 10.1 µM and the half-maximal inhibitory concentration (IC50) was 11.9 ± 3 µM. Moreover, in data set [1], the viability at 16 h, 20 µM came to 104 ± 1.2% and the viability at 16 h, 60 µM amounted to 104.8 ± 0.434%. Besides, the “NRF2 induction, CD (concentration needed to double luciferase expression)” value in data set [2] (HEK293T) is 15 µM. Also, in data set [2] (setting [6]), the fold induction at 20 µM is 2.2 ± 0.09. For the same compound, in data set [2] (setting [7]), the fold induction at 6 µM came to 1.7 ± 0.09 and the fold induction at 60 µM is 5.8 ± 0.23. Moreover, in data set [2] (setting [8]), the fold induction at 20 µM is 2.2 ± 0.09. For the same compound, in data set [2], the “activation of the NRF2 reporter” value is “dose-dependent activation”.

`O=C(O)/C=C/c1ccc(O)c(O)c1` [caffeic acid, reference compound]: in data set [4], the EC50 was 12.1 µM.

For the compound `COc1cc(/C=C/C(=O)O)ccc1O` [ferulic acid, reference compound], in data set [4], the EC50 stood at 22.8 µM.

Compound `COc1cc(CCC(=O)N2CCN(S(=O)(=O)c3cccc4cnccc34)CC2)ccc1O` [Compound 1g, 3-(4-Hydroxy-3-methoxyphenyl)-1-(4-(isoquinolin-5-ylsulfonyl)piperazin-1-yl)propan-1-one] had a melting point of 156 to 157 °C. Also, in data set [3], the remaining activity at 10 µM stood at 53 ± 8.8% and the half-inhibitory concentration (IC50) was over 10 µM. In addition, the EC50 in data set [4] came to 10.3 µM. For the same compound, in data set [1], the viability at 16 h, 20 µM worked out at 93.7 ± 2.2% and the viability at 16 h, 60 µM was 87.5 ± 2.32%. In addition, in data set [2] (setting [6]), the fold induction at 20 µM is 0.8 ± 0.04. Moreover, in data set [2] (setting [7]), the fold induction at 6 µM is 1 ± 0.01 and the fold induction at 60 µM stood at 1.5 ± 0.22. Besides, in data set [2] (setting [8]), the fold induction at 20 µM was found to be 0.8 ± 0.04.

In data set [4], `Cc1c(C)c2c(c(C)c1O)CCC(C)(C(=O)O)O2` (centres unmarked) [Trolox, reference compound] registered an IC50 of 12 ± 2.3 µM.

For the compound `COc1cc(CCC(=O)N2CCCN(S(=O)(=O)c3cccc4cnccc34)CC2)ccc1O` [Compound 1h, 3-(4-Hydroxy-3-methoxyphenyl)-1-(4-(isoquinolin-5-ylsulfonyl)-1,4-diazepan-1-yl)propan-1-one], in data set [3], the remaining activity at 10 µM stood at 27.4 ± 1.4% and the 50% inhibitory concentration (IC50) stood at 0.9 µM. In data set [4], the 50% effective concentration (EC50) is 12 µM. In addition, in data set [1], the viability at 16 h, 20 µM came to 99.4 ± 1.78% and the viability at 16 h, 60 µM is 88.2 ± 2.43%. Also, in data set [2] (setting [6]), the fold induction at 20 µM came to 0.9 ± 0.02. In data set [2] (setting [7]), the fold induction at 6 µM came to 1.2 ± 0.09 and the fold induction at 60 µM stood at 1.2 ± 0.03. Moreover, the fold induction at 20 µM in data set [2] (setting [8]) was 0.9 ± 0.02.

In the case of `C[S+]([O-])CCCCN=C=S` (centres unmarked) [SFN, sulforaphane, reference compound], in data set [2] (setting [7]), the fold induction at 6 µM worked out at 4 ± 0.08.

On to `COC(=O)/C=C/C(=O)OC` [DMF, dimethyl fumarate, reference compound], for which, in data set [1], the viability at 16 h, 20 µM was 90.4 ± 6.96% and the viability at 16 h, 60 µM is 92.21 ± 0.462%. Also, in data set [2] (setting [6]), the fold induction at 20 µM is 4.9 ± 0.35. The fold induction at 20 µM in data set [2] (setting [8]) worked out at 4.9 ± 0.35.

`O=C(/C=C/c1ccc(O)c(O)c1)N1CCN(S(=O)(=O)c2cccc3cnccc23)CC1` [Compound 1a, 3-(3,4-Dihydroxyphenyl)-1-(4-(isoquinolin-5-ylsulfonyl)piperazin-1-yl)prop-2-en-1-one] had a melting point of 161 to 162 °C. Moreover, in data set [3], the remaining activity at 10 µM turned out to be 13.7 ± 1%, the IC50 stood at 0.79 µM and the “ROCK2 inhibition potency compared with fasudil” value is “potency similar to the reference compound”. Moreover, in data set [4], the half-maximal effective concentration (EC50) was 9.93 µM and the midpoint of inhibition, the IC50, lay at 11.9 ± 4.9 µM. Besides, in data set [1], the viability at 16 h, 20 µM was found to be 90.9 ± 1.63% and the viability at 16 h, 60 µM was 100.7 ± 0.999%. Further, the “MTT (%)” value in data set [5] was under 20%. The fold induction at 20 µM in data set [2] (setting [6]) turned out to be 0.8 ± 0.02. In addition, in data set [2] (setting [7]), the fold induction at 6 µM came out at 0.7 ± 0.06 and the fold induction at 60 µM came to 1.2 ± 0.08. Moreover, the fold induction at 20 µM in data set [2] (setting [8]) was found to be 0.8 ± 0.02.

Compound `COc1cc(/C=C/C(=O)N2CCN(S(=O)(=O)c3cccc4cnccc34)CC2)ccc1O` [Compound 1e, 3-(4-Hydroxy-3-methoxyphenyl)-1-(4-(isoquinolin-5-ylsulfonyl)piperazin-1-yl)prop-2-en-1-one] yielded a melting point of over 230 °C. In addition, in data set [3], the remaining activity at 10 µM was found to be 47 ± 15.1% and the IC50 worked out at 2.33 µM. Besides, in data set [4], the EC50 was determined as 6.42 µM. For the same compound, in data set [1], the viability at 16 h, 20 µM was 60.5 ± 2.73% and the viability at 16 h, 60 µM came out at 55.9 ± 1.08%. Besides, the fold induction at 20 µM in data set [2] (setting [6]) was found to be 1.1 ± 0.16. Moreover, in data set [2] (setting [7]), the fold induction at 6 µM was 1.2 ± 0.11 and the fold induction at 60 µM worked out at 1.2 ± 0.14. Moreover, the fold induction at 20 µM in data set [2] (setting [8]) worked out at 1.1 ± 0.16.

On to `O=C(/C=C/c1ccc(O)c(O)c1)N1CCCN(S(=O)(=O)c2cccc3cnccc23)CC1` [Compound 1b, 3-(3,4-Dihydroxyphenyl)-1-(4-(isoquinolin-5-ylsulfonyl)-1,4-diazepan-1-yl)prop-2-en-1-one], for which, in data set [3], the remaining activity at 10 µM was determined as 7.8 ± 1% and the IC50 was 2.13 µM. Further, in data set [4], the EC50 was 10 µM and half-maximal inhibition (IC50) was put at 9.9 ± 1.4 µM. In data set [1], the viability at 16 h, 20 µM was determined as 96.9 ± 1.13% and the viability at 16 h, 60 µM worked out at 84.7 ± 1.83%. Also, the “NRF2 induction, CD (concentration needed to double luciferase expression)” value in data set [2] (HEK293T) is 12 µM. In addition, in data set [2] (setting [6]), the fold induction at 20 µM stood at 3.1 ± 0.04. In addition, the fold induction at 20 µM in data set [2] (setting [8]) was 3.1 ± 0.04. Moreover, the fold induction at 60 µM in data set [2] (setting [7]) came out at 4.1 ± 0.06. In data set [2], the “activation of the NRF2 reporter” value is “dose-dependent activation”.
